Here are results for one compound from ChEMBL document CHEMBL5214954, “Identification of PI3K/HDAC Dual-targeted inhibitors with subtype selectivity as potential therapeutic agents against solid Tumors: Building HDAC6 potency in a Quinazolinone-based PI3Kδ-selective template” (Bioorg Med Chem, 2022).

As usually defined, the IC50 is the concentration at which inhibition is half-maximal. The low end stands for higher potency, the high end for lower potency. Broadly, the half-life is the time in which the quantity being followed falls by half. Higher therefore signals slow loss. A word on the Cmax: it is the maximum level reached in the sampled fluid or tissue. A word on the AUC(0-inf): it is the area under the concentration-time curve extrapolated to infinity. High values mean high exposure, low ones low exposure. In general, clearance refers to a measure of how efficiently the substance is removed, as volume per time. The low end stands for a low capacity for elimination, the high end for a high capacity for elimination.

Some results are limits rather than exact numbers.

Data set [1] addresses T1, Phosphatidylinositol 4,5-bisphosphate 3-kinase catalytic subunit delta isoform (Homo sapiens, UniProt O00329).
T1 sequence (O00329 whole entry): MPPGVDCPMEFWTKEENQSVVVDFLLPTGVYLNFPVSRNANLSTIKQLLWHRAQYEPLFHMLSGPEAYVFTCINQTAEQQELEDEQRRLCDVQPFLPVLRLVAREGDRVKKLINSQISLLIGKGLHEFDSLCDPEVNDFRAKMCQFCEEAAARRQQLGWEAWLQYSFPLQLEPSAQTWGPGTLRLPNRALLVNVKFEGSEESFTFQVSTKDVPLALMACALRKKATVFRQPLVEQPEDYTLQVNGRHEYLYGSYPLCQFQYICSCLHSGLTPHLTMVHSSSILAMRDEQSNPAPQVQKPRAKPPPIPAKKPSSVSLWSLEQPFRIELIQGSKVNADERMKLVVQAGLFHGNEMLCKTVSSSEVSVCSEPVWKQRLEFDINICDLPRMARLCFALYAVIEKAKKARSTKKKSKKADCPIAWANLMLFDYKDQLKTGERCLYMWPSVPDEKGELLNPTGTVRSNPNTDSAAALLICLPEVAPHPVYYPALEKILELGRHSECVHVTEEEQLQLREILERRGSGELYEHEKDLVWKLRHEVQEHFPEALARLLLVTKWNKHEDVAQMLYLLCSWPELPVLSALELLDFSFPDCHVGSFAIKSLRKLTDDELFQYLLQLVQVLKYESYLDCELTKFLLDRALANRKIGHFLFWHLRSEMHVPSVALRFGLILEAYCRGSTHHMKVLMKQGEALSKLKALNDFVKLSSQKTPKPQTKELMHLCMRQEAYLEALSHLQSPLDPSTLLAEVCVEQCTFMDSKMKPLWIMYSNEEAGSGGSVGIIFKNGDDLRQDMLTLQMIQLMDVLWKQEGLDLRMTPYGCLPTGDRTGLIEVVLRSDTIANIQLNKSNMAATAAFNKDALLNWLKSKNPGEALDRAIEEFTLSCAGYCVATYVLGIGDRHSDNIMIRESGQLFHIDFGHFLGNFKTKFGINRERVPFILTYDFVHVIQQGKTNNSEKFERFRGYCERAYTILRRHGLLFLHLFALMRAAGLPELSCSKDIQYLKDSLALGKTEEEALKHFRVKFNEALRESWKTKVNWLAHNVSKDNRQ
Description: Inhibition of PI3Kdelta (unknown origin) measured by ADP-Glo assay. For orientation: ADP-Glo first removes unused ATP, then detects ADP through luciferase.

The test system of a further data set is KM12. Description: Antiproliferative activity against human KM12 cells incubated for 72 hrs by CCK-8 assay. As to conditions: KM12, 72 h. The class given is functional, cell-based.
The next data set has as its system HCT-116. The experiment in a line: Antiproliferative activity against human HCT-116 cells incubated for 72 hrs by CCK-8 assay. The following applies: HCT-116, 72 h. The class given is functional, cell-based. For orientation: Formazan colour is commonly taken as a measure of viable cells.
Data set [2] has as its system T47D. The experiment in a line: Antiproliferative activity against human T47D cells incubated for 72 hrs by CCK-8 assay. The class given is functional, cell-based.
In the next data set the test system is SU-DHL-6. Description: Antiproliferative activity against human SU-DHL-6 cells incubated for 72 hrs by CCK-8 assay. The class given is functional, cell-based. The following applies: SU-DHL-6, 72 h.
Data set [3] can be described thus: Cytotoxicity against HUVEC cells incubated for 72 hrs by CCK-8 assay. As to conditions: human.
For data set [4], the target named is Phosphatidylinositol 4,5-bisphosphate 3-kinase catalytic subunit alpha isoform (Homo sapiens, UniProt P42336). Description: Inhibition of PI3Kalpha (unknown origin) measured by ADP-Glo assay.
Sequence of Phosphatidylinositol 4,5-bisphosphate 3-kinase catalytic subunit alpha isoform (P42336 whole entry, canonical isoform): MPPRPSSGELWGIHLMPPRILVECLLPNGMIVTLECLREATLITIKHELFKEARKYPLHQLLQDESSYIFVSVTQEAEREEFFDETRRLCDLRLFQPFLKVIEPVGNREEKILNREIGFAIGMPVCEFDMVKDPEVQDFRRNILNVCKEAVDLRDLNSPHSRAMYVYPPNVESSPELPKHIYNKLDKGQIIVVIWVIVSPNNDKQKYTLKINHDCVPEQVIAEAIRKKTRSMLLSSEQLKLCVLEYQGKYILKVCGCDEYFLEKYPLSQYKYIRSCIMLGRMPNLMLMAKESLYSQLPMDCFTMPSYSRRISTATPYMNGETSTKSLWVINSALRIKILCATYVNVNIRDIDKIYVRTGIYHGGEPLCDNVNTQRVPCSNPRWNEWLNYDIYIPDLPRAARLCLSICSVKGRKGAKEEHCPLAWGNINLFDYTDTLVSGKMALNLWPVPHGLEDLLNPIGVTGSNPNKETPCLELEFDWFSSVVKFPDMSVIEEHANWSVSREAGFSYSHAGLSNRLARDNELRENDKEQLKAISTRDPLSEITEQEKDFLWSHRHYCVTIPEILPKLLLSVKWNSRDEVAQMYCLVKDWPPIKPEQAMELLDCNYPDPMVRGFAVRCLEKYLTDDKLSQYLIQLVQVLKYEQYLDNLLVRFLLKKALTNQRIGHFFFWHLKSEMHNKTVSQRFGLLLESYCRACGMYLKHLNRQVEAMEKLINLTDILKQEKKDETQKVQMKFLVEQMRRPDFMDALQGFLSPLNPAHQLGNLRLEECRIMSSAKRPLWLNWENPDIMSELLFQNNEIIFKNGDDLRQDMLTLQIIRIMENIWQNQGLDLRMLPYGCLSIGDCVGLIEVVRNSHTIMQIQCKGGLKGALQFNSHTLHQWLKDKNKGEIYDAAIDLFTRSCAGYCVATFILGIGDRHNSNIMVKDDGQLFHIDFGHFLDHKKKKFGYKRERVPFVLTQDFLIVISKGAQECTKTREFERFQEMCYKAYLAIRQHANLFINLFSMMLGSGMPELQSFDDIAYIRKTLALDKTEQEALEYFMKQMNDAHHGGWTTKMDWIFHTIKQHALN
Data set [5] concerns the target Phosphatidylinositol 4,5-bisphosphate 3-kinase catalytic subunit gamma isoform (Homo sapiens, UniProt P48736). The experiment in a line: Inhibition of PI3Kgamma (unknown origin) measured by ADP-Glo assay.
The species named for data set [6] is Homo sapiens. The experiment in a line: Selectivity ratio, ratio IC50 for inhibition of PI3Kalpha (unknown origin) to IC50 for inhibition of PI3Kdelta (unknown origin).
The species entered for data set [7] is Homo sapiens. Description: Selectivity ratio, ratio IC50 for inhibition of PI3Kgamma (unknown origin) to IC50 for inhibition of PI3Kdelta (unknown origin).
In data set [8] the test system is T47D. The experiment in a line: Downregulation of pSTAT3 expression in IL-6-stimulated human T47D cells at 10 to 1000 nM measured by western blot analysis. The class given is functional, cell-based. As to conditions: dose 10-1000 nM, DDE = dose-dependent effect. Background: Immunoblotting shows a protein as a band on a membrane.
In data set [9] the test system is T47D. Description: Downregulation of pAKT expression in human T47D cells at 10 to 1000 nM measured by western blot analysis. As to conditions: dose 10-1000 nM, DDE = dose-dependent effect. Type of data set: functional, cell-based.
The subject of data set [10] is T47D. The experiment in a line: Downregulation of PD-L1 expression in human T47D cells at 10 to 1000 nM measured by western blot analysis. The class given is functional, cell-based. The following applies: dose 10-1000 nM, DDE = dose-dependent effect.
The nature of data set [11]: Half life in male Sprague-Dawley rat at 2 mg/kg, iv measured upto 24 hrs by LC-MS/MS analysis. Type of data set: ADME, organism-based. As to conditions: in vivo.
A short description of data set [12]: Cmax in male Sprague-Dawley rat at 2 mg/kg, iv measured upto 24 hrs by LC-MS/MS analysis. The class given is ADME, organism-based. Set-up: time < 24 hrs, dose 2 mg/kg, route iv. The following applies: in vivo.
The nature of data set [13]: AUC (0 to infinity) in male Sprague-Dawley rat at 2 mg/kg, iv measured upto 24 hrs by LC-MS/MS analysis. Type of data set: ADME, organism-based. Set-up: time < 24 hrs, dose 2 mg/kg, route iv. As to conditions: in vivo.
Data set [14] can be described thus: Clearance in male Sprague-Dawley rat at 2 mg/kg, iv measured upto 24 hrs by LC-MS/MS analysis. The class given is ADME, organism-based. The following applies: in vivo.
Data set [15] is described as follows: Apparent volume of distribution in male Sprague-Dawley rat at 2 mg/kg, iv measured upto 24 hrs by LC-MS/MS analysis. Type of data set: ADME, organism-based. The following applies: in vivo, read-out: Vz.
The next data set concerns the target Histone deacetylase 1 (Homo sapiens, UniProt Q13547).
For the next data set, the target named is T2, Histone deacetylase 8 (Homo sapiens, UniProt Q9BY41).
T2 sequence (Q9BY41 whole entry): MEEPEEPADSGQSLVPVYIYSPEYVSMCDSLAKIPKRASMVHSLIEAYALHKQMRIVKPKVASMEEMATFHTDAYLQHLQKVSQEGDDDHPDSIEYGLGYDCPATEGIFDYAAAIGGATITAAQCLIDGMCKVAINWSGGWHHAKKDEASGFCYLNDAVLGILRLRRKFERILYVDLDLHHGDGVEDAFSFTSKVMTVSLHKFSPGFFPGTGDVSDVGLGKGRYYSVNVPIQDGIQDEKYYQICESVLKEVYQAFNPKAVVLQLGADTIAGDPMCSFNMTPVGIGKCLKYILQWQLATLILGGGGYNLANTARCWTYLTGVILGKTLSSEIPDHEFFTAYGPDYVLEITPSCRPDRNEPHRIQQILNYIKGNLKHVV

The target of a further data set is T3, Histone deacetylase 11 (Homo sapiens, UniProt Q96DB2).
T3 sequence (Q96DB2 whole entry): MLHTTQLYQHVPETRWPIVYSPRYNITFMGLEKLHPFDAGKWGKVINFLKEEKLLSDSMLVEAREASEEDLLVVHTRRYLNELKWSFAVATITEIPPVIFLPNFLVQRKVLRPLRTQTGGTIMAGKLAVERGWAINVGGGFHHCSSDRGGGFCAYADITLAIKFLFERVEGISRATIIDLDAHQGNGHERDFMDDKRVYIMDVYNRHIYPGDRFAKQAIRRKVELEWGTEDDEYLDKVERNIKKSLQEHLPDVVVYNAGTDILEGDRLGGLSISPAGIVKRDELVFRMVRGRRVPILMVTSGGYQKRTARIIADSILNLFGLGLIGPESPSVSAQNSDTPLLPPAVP

Sequence of Phosphatidylinositol 4,5-bisphosphate 3-kinase catalytic subunit gamma isoform (P48736 whole entry, canonical isoform): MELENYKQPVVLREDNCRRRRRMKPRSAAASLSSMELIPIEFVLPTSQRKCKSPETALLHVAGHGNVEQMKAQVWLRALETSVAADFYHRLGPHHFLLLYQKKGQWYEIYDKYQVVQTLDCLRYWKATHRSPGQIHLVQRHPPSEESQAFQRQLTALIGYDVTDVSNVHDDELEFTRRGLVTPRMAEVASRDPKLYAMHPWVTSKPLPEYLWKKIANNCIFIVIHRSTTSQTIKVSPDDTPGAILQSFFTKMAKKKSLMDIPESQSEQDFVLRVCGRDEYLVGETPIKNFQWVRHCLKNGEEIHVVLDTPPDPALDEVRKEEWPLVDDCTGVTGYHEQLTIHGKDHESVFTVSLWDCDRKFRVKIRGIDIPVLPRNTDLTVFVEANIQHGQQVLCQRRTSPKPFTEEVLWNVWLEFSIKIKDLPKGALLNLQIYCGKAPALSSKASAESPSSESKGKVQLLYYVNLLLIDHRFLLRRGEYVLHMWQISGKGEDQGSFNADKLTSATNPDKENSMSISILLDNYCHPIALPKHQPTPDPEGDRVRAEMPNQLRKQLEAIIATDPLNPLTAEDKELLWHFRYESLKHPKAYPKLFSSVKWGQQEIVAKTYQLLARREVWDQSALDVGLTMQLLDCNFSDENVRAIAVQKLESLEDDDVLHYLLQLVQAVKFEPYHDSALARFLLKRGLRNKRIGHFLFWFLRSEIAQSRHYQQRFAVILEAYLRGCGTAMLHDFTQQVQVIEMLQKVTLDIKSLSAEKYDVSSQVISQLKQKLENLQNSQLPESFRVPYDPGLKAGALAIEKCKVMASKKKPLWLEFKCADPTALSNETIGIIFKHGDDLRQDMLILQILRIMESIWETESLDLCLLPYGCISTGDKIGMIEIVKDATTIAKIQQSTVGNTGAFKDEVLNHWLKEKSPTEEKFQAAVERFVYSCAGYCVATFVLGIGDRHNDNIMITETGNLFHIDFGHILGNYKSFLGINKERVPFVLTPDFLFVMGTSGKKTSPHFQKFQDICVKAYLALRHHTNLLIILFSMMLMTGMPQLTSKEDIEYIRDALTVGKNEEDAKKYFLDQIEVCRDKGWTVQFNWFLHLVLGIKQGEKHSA
Sequence of Histone deacetylase 1 (Q13547 whole entry): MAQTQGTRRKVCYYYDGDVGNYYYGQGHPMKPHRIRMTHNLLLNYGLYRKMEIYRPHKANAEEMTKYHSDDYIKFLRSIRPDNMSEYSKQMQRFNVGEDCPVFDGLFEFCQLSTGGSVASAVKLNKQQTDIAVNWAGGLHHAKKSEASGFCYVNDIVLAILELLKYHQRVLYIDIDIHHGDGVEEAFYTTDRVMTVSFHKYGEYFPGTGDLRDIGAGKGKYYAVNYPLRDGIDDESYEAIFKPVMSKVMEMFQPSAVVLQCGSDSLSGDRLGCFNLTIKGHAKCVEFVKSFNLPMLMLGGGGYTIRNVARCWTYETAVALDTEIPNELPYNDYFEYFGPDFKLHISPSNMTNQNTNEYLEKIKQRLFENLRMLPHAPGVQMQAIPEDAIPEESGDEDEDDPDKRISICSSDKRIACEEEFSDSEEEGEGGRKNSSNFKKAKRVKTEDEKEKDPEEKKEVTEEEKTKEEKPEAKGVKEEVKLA
Description for Histone deacetylase 11: Inhibition of HDAC11 (unknown origin) measured by fluorescence based assay
Description for Histone deacetylase 8: Inhibition of HDAC8 (unknown origin) measured by fluorescence based assay

As to `N#Cc1c(N)nc(N)nc1N1CC2(CC2)C[C@H]1c1nc2cccc(Cl)c2c(=O)n1Cc1ccc(C(=O)NO)s1`, the IC50 worked out at 2.3 nM in [1]; 1190 nM with KM12; 800 nM with HCT-116; 42 nM with T47D [2]; 150 nM in the data set on SU-DHL-6; 169 nM in [4]. For the same compound, the IC50 in data set [5] was 30.5 nM; at Histone deacetylase 1 it was 230 nM; at Histone deacetylase 8 it was above 5000 nM; against Histone deacetylase 11 it was 1550 nM. In addition, the IC50 at 72 h in data set [3] is 37000 nM. The values for the Ratio IC50 in the data set filed under Homo sapiens [6] and in the data set listed under Homo sapiens [7] were 73 and 13, respectively. For the same compound, the Activity result in the data set with T47D [8], in the data set with T47D [9] and with T47D [10] was “Dde” in each case. The half-life in data set [11] is 27.6 min. This compound gave a Cmax in data set [12] of 2120 ng/mL. Further, the AUC(0-inf) in data set [13] was determined as 632 ng·h/mL. In addition, the clearance in data set [14] is 53 mL/min/kg. Further, the Vd in [15] came to 2.09 L/kg.
